Measured values as given in patent US20120029187A1, “HALOALKYLSULFONANILIDE DERIVATIVE” (Nissan Chemical Industries, Ltd., priority 2009, published 2012).

Experiments:
Type in all cases: in vivo
ducksalad [1] = test: Test Example 2: herbicidal effects during the vegetation period under submerged conditions; conditions: treatment during the vegetation period under submerged conditions; dose 2.52 g/a
Procedure, shortened: (§1)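 Barnyardgrass, bulrush and ducksalad were co-sown in alluvial soil flooded to 4 cm and grown in a greenhouse at 25 to 30° C. At the 1- or 2-leaf stage, water-diluted emulsifiable concentrates went onto the water surface at set doses (g/a). Herbicidal effect was scored three weeks later on a graded scale.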

bulrush [2] = test: as above; conditions: treatment during the vegetation period under submerged conditions; dose 2.52 g/a
Procedure, shortened: as §1

barnyardgrass [3] = test: as above; conditions: treatment during the vegetation period under submerged conditions; dose 2.52 g/a
Procedure, shortened: as §1

water foxtail [4] = test: Test Example 4: herbicidal effect in foliage treatment; conditions: dose 6.3 g/a, three weeks after application
Procedure, shortened: (§2)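 Weeds and crops sown in sterilized diluvial soil under ~1.5 cm cover and grown in greenhouse at 25 to 30° C. At 14 days, water-diluted emulsifiable concentrate sprayed onto foliage at set doses (g/a); herbicidal effect scored on a rating scale three weeks after application.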

common lambsquater [5] = test: as above; conditions: dose 6.3 g/a, three weeks after application
Procedure, shortened: as §2

Italian ryegrass [6] = test: as above; conditions: dose 6.3 g/a, three weeks after application
Procedure, shortened: as §2

giant foxtail [7] = test: as above; conditions: dose 6.3 g/a, three weeks after application
Procedure, shortened: as §2

common ragweed [8] = test: as above; conditions: dose 6.3 g/a, three weeks after application
Procedure, shortened: as §2

beadstraw = test: as above; conditions: dose 6.3 g/a, three weeks after application
Procedure, shortened: as §2

wild oat [9] = test: as above; conditions: dose 6.3 g/a, three weeks after application
Procedure, shortened: as §2

common chickweed [10] = test: as above; conditions: dose 6.3 g/a, three weeks after application
Procedure, shortened: as §2

barnyardgrass [11] = test: as above; conditions: dose 6.3 g/a, three weeks after application
Procedure, shortened: as §2

large crabgrass [12] = test: as above; conditions: dose 6.3 g/a, three weeks after application
Procedure, shortened: as §2

redroot pigweed [13] = test: as above; conditions: dose 6.3 g/a, three weeks after application
Procedure, shortened: as §2

water foxtail [14] = test: Test Example 3: herbicidal effects in soil treatment; conditions: dose 6.3 g/a
Procedure, shortened: (§3)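 Seeds were sown in sterilized diluvial soil and covered with about 1.5 cm of soil. Compounds, formulated as emulsifiable concentrates and diluted with water, were sprayed evenly over the soil surface at set doses in g/a. Herbicidal effect was scored on a rating scale three weeks later.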

common lambsquater [15] = test: as above; conditions: dose 6.3 g/a
Procedure, shortened: as §3

Italian ryegrass [16] = test: as above; conditions: dose 6.3 g/a
Procedure, shortened: as §3

giant foxtail [17] = test: as above; conditions: dose 6.3 g/a
Procedure, shortened: as §3

common ragweed [18] = test: as above; conditions: dose 6.3 g/a
Procedure, shortened: as §3

wild oat [19] = test: as above; conditions: dose 6.3 g/a
Procedure, shortened: as §3

common chickweed [20] = test: as above; conditions: dose 6.3 g/a
Procedure, shortened: as §3

barnyardgrass [21] = test: as above; conditions: dose 6.3 g/a
Procedure, shortened: as §3

large crabgrass [22] = test: as above; conditions: dose 6.3 g/a
Procedure, shortened: as §3

redroot pigweed [23] = test: as above; conditions: dose 6.3 g/a
Procedure, shortened: as §3

transplanted rice = test: Test Example 1: preemergence treatment under submerged conditions, effect on crop; conditions: dose 2.52 g/a
Procedure, shortened: (§4)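 Submerged conditions, 4 cm water over alluvial soil. Weeds sown and 2.5-leaf rice transplanted; compound applied preemergence to water surface, doses in g per are. Greenhouse, 25 to 30° C., three weeks, then 0–5 mortality rating.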

ducksalad [24] = test: Test Example 1: herbicidal effects in preemergence treatment under submerged conditions; conditions: dose 2.52 g/a
Procedure, shortened: as §4

bulrush [25] = test: as above; conditions: dose 2.52 g/a
Procedure, shortened: as §4

barnyardgrass [26] = test: as above; conditions: dose 2.52 g/a
Procedure, shortened: as §4

Q: How did the “C: ducksalad, herbicidal effect (evaluation scale 0-5)” value (ducksalad [1]) turn out when `CC(C)COC(=O)N(c1ccccc1CN1COC(C)CC1=O)S(=O)(=O)C(F)(F)F` (centres unmarked) [II-8] was run?
A: Its value is 4 (mortality of at least 70% and less than 90%).

Q: What about the “B: bulrush, herbicidal effect (evaluation scale 0-5)” value (bulrush [2]) of the same compound?
A: Its value is 5 (mortality of 90% or above (nearly complete death)).

Q: And the “A: barnyardgrass, herbicidal effect (evaluation scale 0-5)” value (barnyardgrass [3])?
A: The value was 5 (mortality of 90% or above (nearly complete death)).

Q: And the “G: water foxtail, herbicidal effect” value (water foxtail [4])?
A: Its value is 5 (mortality of 90% or above (nearly complete death)).

Q: And the “L: common lambsquater, herbicidal effect” value (common lambsquater [5])?
A: The value was 5 (mortality of 90% or above (nearly complete death)).

Q: What about the “H: Italian ryegrass, herbicidal effect” value (Italian ryegrass [6]) of the same compound?
A: Its value is 0 (mortality of less than 5% (almost ineffective)).

Q: What about the “E: giant foxtail, herbicidal effect” value (giant foxtail [7]) of the same compound?
A: The value was 4 (mortality of at least 70% and less than 90%).

Q: And the “J: common ragweed, herbicidal effect” value (common ragweed [8])?
A: Its value is 4 (mortality of at least 70% and less than 90%).

Q: And the “O: beadstraw, herbicidal effect” value (beadstraw)?
A: The value was 1 (mortality of at least 5% and less than 20%).

Q: What about the “F: wild oat, herbicidal effect” value (wild oat [9]) of the same compound?
A: Its value is 0 (mortality of less than 5% (almost ineffective)).

Q: And the “N: common chickweed, herbicidal effect” value (common chickweed [10])?
A: The value was 1 (mortality of at least 5% and less than 20%).

Q: What about the “A: barnyardgrass, herbicidal effect” value (barnyardgrass [11]) of the same compound?
A: Its value is 5 (mortality of 90% or above (nearly complete death)).

Q: What about the “D: large crabgrass, herbicidal effect” value (large crabgrass [12]) of the same compound?
A: The value was 5 (mortality of 90% or above (nearly complete death)).

Q: And the “K: redroot pigweed, herbicidal effect” value (redroot pigweed [13])?
A: The value was 0 (mortality of less than 5% (almost ineffective)).

Q: And the “G: water foxtail, herbicidal effect (evaluation scale 0-5)” value (water foxtail [14])?
A: Its value is 5 (mortality of 90% or above (nearly complete death)).

Q: And the “L: common lambsquater, herbicidal effect (evaluation scale 0-5)” value (common lambsquater [15])?
A: Its value is 4 (mortality of at least 70% and less than 90%).

Q: What about the “H: Italian ryegrass, herbicidal effect (evaluation scale 0-5)” value (Italian ryegrass [16]) of the same compound?
A: The value was 0 (mortality of less than 5% (almost ineffective)).

Q: And the “E: giant foxtail, herbicidal effect (evaluation scale 0-5)” value (giant foxtail [17])?
A: The value was 4 (mortality of at least 70% and less than 90%).

Q: What about the “J: common ragweed, herbicidal effect (evaluation scale 0-5)” value (common ragweed [18]) of the same compound?
A: The value was 5 (mortality of 90% or above (nearly complete death)).

Q: What about the “F: wild oat, herbicidal effect (evaluation scale 0-5)” value (wild oat [19]) of the same compound?
A: The value was 0 (mortality of less than 5% (almost ineffective)).

Q: And the “N: common chickweed, herbicidal effect (evaluation scale 0-5)” value (common chickweed [20])?
A: The value was 3 (mortality of at least 40% and less than 70%).

Q: And the “A: barnyardgrass, herbicidal effect (evaluation scale 0-5)” value (barnyardgrass [21])?
A: The value was 5 (mortality of 90% or above (nearly complete death)).

Q: And the “D: large crabgrass, herbicidal effect (evaluation scale 0-5)” value (large crabgrass [22])?
A: The value was 4 (mortality of at least 70% and less than 90%).

Q: And the “K: redroot pigweed, herbicidal effect (evaluation scale 0-5)” value (redroot pigweed [23])?
A: The value was 0 (mortality of less than 5% (almost ineffective)).

Q: What about the “a: transplanted rice, effect on crop (evaluation scale 0-5)” value (transplanted rice) of the same compound?
A: The value was 0 (mortality of less than 5% (almost ineffective)).

Q: What about the “C: ducksalad, herbicidal effect (evaluation scale 0-5)” value (ducksalad [24]) of the same compound?
A: Its value is 5 (mortality of 90% or above (nearly complete death)).

Q: What about the “B: bulrush, herbicidal effect (evaluation scale 0-5)” value (bulrush [25]) of the same compound?
A: The value was 5 (mortality of 90% or above (nearly complete death)).

Q: And the “A: barnyardgrass, herbicidal effect (evaluation scale 0-5)” value (barnyardgrass [26])?
A: Its value is 5 (mortality of 90% or above (nearly complete death)).

Q: Which results are given for `CC(C)COC(=O)N(c1ccccc1CN1COC(C)(C)CC1=O)S(=O)(=O)C(F)(F)F` [II-26]?
A: C: ducksalad, herbicidal effect (evaluation scale 0-5) (ducksalad [1]): 5 (mortality of 90% or above (nearly complete death)); B: bulrush, herbicidal effect (evaluation scale 0-5) (bulrush [2]): 5 (mortality of 90% or above (nearly complete death)); A: barnyardgrass, herbicidal effect (evaluation scale 0-5) (barnyardgrass [3]): 5 (mortality of 90% or above (nearly complete death)); G: water foxtail, herbicidal effect (water foxtail [4]): 5 (mortality of 90% or above (nearly complete death)); L: common lambsquater, herbicidal effect (common lambsquater [5]): 0 (mortality of less than 5% (almost ineffective)); H: Italian ryegrass, herbicidal effect (Italian ryegrass [6]): 3 (mortality of at least 40% and less than 70%); E: giant foxtail, herbicidal effect (giant foxtail [7]): 4 (mortality of at least 70% and less than 90%); J: common ragweed, herbicidal effect (common ragweed [8]): 5 (mortality of 90% or above (nearly complete death)); O: beadstraw, herbicidal effect (beadstraw): 4 (mortality of at least 70% and less than 90%); F: wild oat, herbicidal effect (wild oat [9]): 0 (mortality of less than 5% (almost ineffective)); N: common chickweed, herbicidal effect (common chickweed [10]): 3 (mortality of at least 40% and less than 70%); A: barnyardgrass, herbicidal effect (barnyardgrass [11]): 4 (mortality of at least 70% and less than 90%); D: large crabgrass, herbicidal effect (large crabgrass [12]): 4 (mortality of at least 70% and less than 90%); K: redroot pigweed, herbicidal effect (redroot pigweed [13]): 0 (mortality of less than 5% (almost ineffective)); G: water foxtail, herbicidal effect (evaluation scale 0-5) (water foxtail [14]): 5 (mortality of 90% or above (nearly complete death)); L: common lambsquater, herbicidal effect (evaluation scale 0-5) (common lambsquater [15]): 0 (mortality of less than 5% (almost ineffective)); H: Italian ryegrass, herbicidal effect (evaluation scale 0-5) (Italian ryegrass [16]): 3 (mortality of at least 40% and less than 70%); E: giant foxtail, herbicidal effect (evaluation scale 0-5) (giant foxtail [17]): 4 (mortality of at least 70% and less than 90%); J: common ragweed, herbicidal effect (evaluation scale 0-5) (common ragweed [18]): 5 (mortality of 90% or above (nearly complete death)); F: wild oat, herbicidal effect (evaluation scale 0-5) (wild oat [19]): 0 (mortality of less than 5% (almost ineffective)); N: common chickweed, herbicidal effect (evaluation scale 0-5) (common chickweed [20]): 2 (mortality of at least 20% and less than 40%); A: barnyardgrass, herbicidal effect (evaluation scale 0-5) (barnyardgrass [21]): 5 (mortality of 90% or above (nearly complete death)); D: large crabgrass, herbicidal effect (evaluation scale 0-5) (large crabgrass [22]): 5 (mortality of 90% or above (nearly complete death)); K: redroot pigweed, herbicidal effect (evaluation scale 0-5) (redroot pigweed [23]): 0 (mortality of less than 5% (almost ineffective)); a: transplanted rice, effect on crop (evaluation scale 0-5) (transplanted rice): 0 (mortality of less than 5% (almost ineffective)); C: ducksalad, herbicidal effect (evaluation scale 0-5) (ducksalad [24]): 5 (mortality of 90% or above (nearly complete death)); B: bulrush, herbicidal effect (evaluation scale 0-5) (bulrush [25]): 5 (mortality of 90% or above (nearly complete death)); A: barnyardgrass, herbicidal effect (evaluation scale 0-5) (barnyardgrass [26]): 5 (mortality of 90% or above (nearly complete death))
